Data set [1] deals with T1, C5a anaphylatoxin chemotactic receptor 1 (Homo sapiens, UniProt P21730).
T1 sequence (P21730 whole entry): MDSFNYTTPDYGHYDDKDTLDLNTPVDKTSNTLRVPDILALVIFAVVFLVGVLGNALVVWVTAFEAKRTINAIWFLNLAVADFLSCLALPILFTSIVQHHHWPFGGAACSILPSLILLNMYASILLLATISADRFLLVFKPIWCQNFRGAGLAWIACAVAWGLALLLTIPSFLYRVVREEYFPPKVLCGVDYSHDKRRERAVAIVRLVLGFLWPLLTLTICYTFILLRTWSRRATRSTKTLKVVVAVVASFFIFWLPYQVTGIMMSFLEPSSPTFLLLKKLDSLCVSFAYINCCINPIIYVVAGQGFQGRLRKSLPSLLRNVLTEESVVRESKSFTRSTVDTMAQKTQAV
Put plainly: Displacement of [125I]C5a from C5a receptor in cAMP differentiated human U937 cells by filtration assay. It is filed as cell-based, U-937. In general terms: In a radioligand displacement assay an active substance lowers the binding of a labelled ligand.

The target in data set [2] is T1, C5a anaphylatoxin chemotactic receptor 1. The data set can be described thus: Antagonist activity at C5a receptor assessed as inhibition of C5a-induced elastase release in human neutrophils during degranulation preincubated 5 mins prior to C5a challenge using p-nitroanilide as substrate. Type of data set: functional.
Data set [3] in a line: Octanol-neutral buffer distribution coefficient, log D at pH 7.4. Type of data set: physicochemical.
Data set [4] deals with T2, C5a anaphylatoxin chemotactic receptor 1 (Homo sapiens) (UniProt P21730).
T2 sequence (whole entry): T1 sequence (P21730 whole entry)
Put plainly: Binding affinity to C5a receptor assessed as total drug level required for translation of C5a-induced CD11b upregulation in heparinised human whole blood preincubated 1 min prior to C5a challenge by dose-response curve analysis. Type of data set: tissue-based.

Data set [5] addresses T2, C5a anaphylatoxin chemotactic receptor 1 (Homo sapiens). Put plainly: Binding affinity to C5a receptor assessed as free drug level required for translation of C5a-induced CD11b upregulation in heparinised human whole blood preincubated 1 min prior to C5a challenge by dose-response curve analysis. Type of data set: tissue-based.
Data set [6] is described as follows: Protein binding in human plasma. It is filed as ADME, cell-free. The following applies: read-out: PPB (converted).
Data set [7] is described as follows: Dissociation constant, pKa of the compound. It is filed as physicochemical.
Data set [8] addresses T2, C5a anaphylatoxin chemotactic receptor 1 (Homo sapiens). The data set can be described thus: Antagonist activity at C5a receptor assessed as free drug level required to induce 10-fold shift in C5a-stimulated CD11b upregulation in heparinised human whole blood preincubated 1 min prior to C5a challenge by dose-response curve analysis. It is filed as functional, tissue-based.

For data set [9] the target is unchanged. The data set can be described thus: Antagonist activity at C5a receptor assessed as total drug level required to induce 10-fold shift in C5a-stimulated CD11b upregulation in heparinised human whole blood preincubated 1 min prior to C5a challenge by dose-response curve analysis. It is filed as functional, tissue-based.
A short description of data set [10]: Lipophilicity, log D of the compound. It is filed as physicochemical. The following applies: octanol/water.

Each structure is given as a SMILES string.

As usually defined, the IC50 is the midpoint of a concentration-inhibition curve. In turn, `Clc1ccc(Cc2nnc(-c3cccc4ccccc34)n2C2CCC3(CC2)OCCO3)cc1` had an IC50 in data set [1] above 1000 nM.
Take `COCC(Cc1ccc(Cl)cc1)N(C(=O)c1csc2ccccc12)C1CCC2(CC1)OCCO2` (racemic): the IC50 turned out to be 12 nM in data set [1] and 27 nM in [2].
In data set [1], `CCc1ccccc1C(=O)N(C1CCC2(CC1)OCCO2)[C@H](CCN(C)C)Cc1ccc(Cl)cc1` gave a half-inhibitory concentration (IC50) above 1000 nM.
For the molecule `COC(=O)C(Cc1ccc(Cl)cc1)N(C(=O)c1csc2ccccc12)C1CCC2(CC1)OCCO2` (racemic), the IC50 stood at 15 nM in data set [1] and 172 nM in data set [2].
For orientation: logD means the decadic logarithm of the distribution of all forms, ionised or not, between an organic phase and buffer at a given pH. A high value points to a more lipophilic compound. On to `CN(C)CC(Cc1ccc(Cl)cc1)N(C(=O)c1cccc2ccccc12)C1CCC2(CC1)OCCO2` (racemic), for which the log distribution coefficient (logD) in data set [3] stood at 4.6. Further, the values for the IC50 in [1] and in data set [2] were 13 nM and 22 nM, respectively.
In the case of `CCc1ccccc1C(=O)N(C1CCC2(CC1)OCCO2)C(Cc1ccc(Cl)cc1)C(=O)O` (racemic), in data set [1], the IC50 was 350 nM.
On the same count and under the same terms, the value for `Clc1cccc2nc(-c3csc4ccccc34)n(C3CCC4(CC3)OCCO4)c12` was 325 nM.
In general, pKa refers to the pH at which an ionisable group is half protonated. Low values mean a stronger acid or weaker base, high ones a weaker acid or stronger base. Consider `CCc1ccccc1C(=O)N(C1CCC2(CC1)OCCO2)C(Cc1ccc(Cl)cc1)CN(C)C` (racemic), for which the Activity in [4] was found to be 178 nM; in data set [5] it was 0.63 nM; in data set [8], 17 nM; in [9], 4.8 µM. Moreover, the logD in [3] is above 5. The fraction unbound in [6] was 0.004. For the same molecule, in data set [7], the pKa was 7.4. The half-maximal inhibitory concentration (IC50) came out at 27 nM in [1] and 25 nM in data set [2].
In the case of `c1ccc2c(-c3ncc(CC4CCCCC4)n3C3CCC4(CC3)OCCO4)csc2c1`, the values for the IC50 in data set [1] and in [2] were 47 nM and 850 nM, respectively.
For the molecule `CCOC(=O)C(Cc1ccc(Cl)cc1)N(C(=O)c1cccc2ccccc12)C1CCC2(CC1)OCCO2` (racemic), the IC50 in [1] came out at 3 nM; in data set [2], 32 nM.
Molecule `CC(=O)C(Cc1ccc(Cl)cc1)N(C(=O)c1csc2ccccc12)C1CCC2(CC1)OCCO2` (racemic) showed an IC50 in data set [1] of 45 nM.
Regarding `O=C(c1csc2ccccc12)N(C1CCC2(CC1)OCCO2)C(CO)Cc1ccc(Cl)cc1` (racemic), the half-inhibitory concentration (IC50) in data set [1] was above 1000 nM.
Turning to `Clc1ccc(Cc2cnc(-c3cccc4ccccc34)n2C2CCC3(CC2)OCCO3)cc1`, the 50% inhibitory concentration (IC50) in [1] stood at 90 nM; in data set [2] it was 877 nM.
In data set [3], `Clc1ccc(Cc2cnc(-c3csc4ccccc34)n2C2CCC3(CC2)OCCO3)cc1` displayed a log distribution coefficient (logD) above 4. Moreover, the 50% inhibitory concentration (IC50) in data set [1] worked out at 500 nM.
On to `Clc1ccc(CC2CN=C(c3csc4ccccc34)N2C2CCC3(CC2)OCCO3)cc1` (centres undefined), for which, in data set [1], the IC50 was above 1000 nM.
`CN(C)Cc1ccccc1C(=O)N(CCc1ccc(Cl)cc1)C1CCC2(CC1)OCCO2` had a logD in data set [3] of 3.3. Further, the fraction unbound in data set [6] was 0.004. The same molecule returned a pKa in data set [7] of 8.4. The results for the Activity in [8] and in data set [9] were above 40 nM and above 10 µM, respectively. Also, the IC50 in [1] was found to be 500 nM.
Turning to `CCc1ccccc1C(=O)N(C1CCC2(CC1)OCCO2)[C@H](CCN1CCOCC1)Cc1ccc(Cl)cc1`, the Activity was 22 nM in [4], 0.6 nM in [5], 119 nM in data set [8] and 4.4 µM in [9]. In data set [3], this molecule registered a pH-dependent lipophilicity (logD) of 3.4. In data set [6], the fraction unbound was 0.027. The same molecule had an IC50 in data set [1] of 200 nM.
`Clc1ccc2nc(-c3csc4ccccc34)n(C3CCC4(CC3)OCCO4)c2c1Cl`: the logD in [3] is above 5. In [1], this molecule registered an IC50 of 790 nM.
In data set [3], `Cc1nc(-c2csc3ccccc23)n(C2CCC3(CC2)OCCO3)c1Cc1ccc(Cl)cc1` came in with a pH-dependent lipophilicity (logD) of 4.6. Moreover, the half-inhibitory concentration (IC50) in data set [1] came to 90 nM.
In [3], `CCc1ccccc1C(=O)N(C1CCC2(CC1)OCCO2)C(Cc1ccc(Cl)cc1)c1noc(C)n1` (racemic) had a log distribution coefficient (logD) above 5. Moreover, the IC50 in data set [1] amounted to 8 nM; in data set [2], 40 nM.
In turn, `O=C(Nc1ccc(F)cc1F)N1CCC(N(CCc2ccc(Cl)cc2)C(=O)c2csc3ccccc23)CC1` registered a log distribution coefficient (logD) in data set [10] below 4.
For the molecule `COc1cccc(-c2ncc(Cc3ccc(Cl)cc3)n2C2CCC3(CC2)OCCO3)c1`, the logD in data set [3] came out at 4. The IC50 in [1] was above 1000 nM.

The values are drawn from ChEMBL document CHEMBL1154502, “Small, non-peptide C5a receptor antagonists: part 2” (Bioorg Med Chem Lett, 2008).
